# Reference: US10669240B2, “5-substituted indazole-3-carboxamides and preparation and use thereof” (Samumed, LLC, priority 2014, dated 2020)
# Molecular target: DYRK1A (Homo sapiens (Human), UniProt Q13627)
# Assay: DYRK1A activity Tau assay: pSer396 Tau in SH-SY5Y cells by ELISA / western blot
# Format: cell-based
# Conditions: overnight (16-18 h) exposure
row,EC50,SMILES
1,33 nM,"O=C(NC1CCN(CC2CC2)CC1)c1n[nH]c2ccc(-c3cncc(F)c3)cc12 [Compound 1312, N-(1-(Cyclopropylmethyl)piperidin-4-yl)-5-(5-fluoropyridin-3-yl)-1H-indazole-3-carboxamide]"
2,11 nM,"O=C(NC1CCN(CC2CCC2)CC1)c1n[nH]c2ccc(-c3cccnc3)cc12 [Compound 1314, N-(1-(Cyclobutylmethyl)piperidin-4-yl)-5-(pyridin-3-yl)-1H-indazole-3-carboxamide]"
3,870 nM,"CC(C)(C)CN1CCC(NC(=O)c2n[nH]c3ccc(-c4cncc(F)c4)cc23)CC1 [Compound 1315, 5-(5-Fluoropyridin-3-yl)-N-(1-neopentylpiperidin-4-yl)-1H-indazole-3-carboxamide]"
4,12 nM,"CC(C)CCN1CCC(NC(=O)c2n[nH]c3ccc(-c4cccnc4)cc23)CC1 [Compound 1316, N-(1-Isopentylpiperidin-4-yl)-5-(pyridin-3-yl)-1H-indazole-3-carboxamide]"
5,1 nM,"NC1CN(c2cncc(-c3ccc4[nH]nc(C(=O)Nc5cccnc5)c4c3)n2)C1 [Compound 1317, 5-(6-(3-Aminoazetidin-1-yl)pyrazin-2-yl)-N-(pyridin-3-yl)-1H-indazole-3-carboxamide]"
6,97 nM,"CC(C)(F)CN1CCC(NC(=O)c2n[nH]c3ccc(-c4cnccn4)cc23)CC1 [Compound 1319, N-(1-(2-Fluoro-2-methylpropyl)piperidin-4-yl)-5-(pyrazin-2-yl)-1H-indazole-3-carboxamide]"
7,42 nM,"CC(C)(F)CN1CCC(NC(=O)c2n[nH]c3ccc(-c4cccnc4F)cc23)CC1 [Compound 1320, N-(1-(2-Fluoro-2-methylpropyl)piperidin-4-yl)-5-(2-fluoropyridin-3-yl)-1H-indazole-3-carboxamide]"
8,14 nM,"CC(C)(F)CN1CCC(NC(=O)c2n[nH]c3ccc(-c4ccc(F)nc4)cc23)CC1 [Compound 1321, N-(1-(2-Fluoro-2-methylpropyl)piperidin-4-yl)-5-(6-fluoropyridin-3-yl)-1H-indazole-3-carboxamide]"
9,534 nM,"Cc1ncc(-c2ccc3[nH]nc(C(=O)NC4CCN(CC(C)(C)F)CC4)c3c2)cn1 [Compound 1322, N-(1-(2-Fluoro-2-methylpropyl)piperidin-4-yl)-5-(2-methylpyrimidin-5-yl)-1H-indazole-3-carboxamide]"
10,43 nM,"O=C(NCC1CC1)c1n[nH]c2ccc(-c3cncc(Cl)c3)cc12 [Compound 1323, 5-(5-Chloropyridin-3-yl)-N-(cyclopropylmethyl)-1H-indazole-3-carboxamide]"
11,10 nM,"CN(C)Cc1ccc(NC(=O)c2n[nH]c3ccc(-c4cccnc4)cc23)cc1 [Compound 1324, N-(4-((Dimethylamino)methyl)phenyl)-5-(pyridin-3-yl)-1H-indazole-3-carboxamide]"
12,54 nM,"CN(C)Cc1ccc(NC(=O)c2n[nH]c3ccc(-c4cccc(F)c4F)cc23)cc1 [Compound 1325, 5-(2,3-Difluorophenyl)-N-(4-((dimethylamino)methyl)phenyl)-1H-indazole-3-carboxamide]"
13,10 nM,"O=C(Nc1ccc(CN2CCCC2)cc1)c1n[nH]c2ccc(-c3cccnc3)cc12 [Compound 1326, 5-(Pyridin-3-yl)-N-(4-(pyrrolidin-1-ylmethyl)phenyl)-1H-indazole-3-carboxamide]"
14,14 nM,"CN1CCN(Cc2ccc(NC(=O)c3n[nH]c4ccc(-c5cccc(F)c5F)cc34)cc2)CC1 [Compound 1332, 5-(2,3-Difluorophenyl)-N-(4-((4-methylpiperazin-1-yl)methyl)phenyl)-1H-indazole-3-carboxamide]"
15,62 nM,"CC(C)CNC(=O)c1n[nH]c2ccc(-c3ccc(F)nc3)cc12 [Compound 1335, 5-(6-Fluoropyridin-3-yl)-N-isobutyl-1H-indazole-3-carboxamide]"
16,22 nM,"CC(C)CNC(=O)c1n[nH]c2ccc(-c3cccnc3F)cc12 [Compound 1336, 5-(2-Fluoropyridin-3-yl)-N-isobutyl-1H-indazole-3-carboxamide]"
17,2500 nM,"CN1CCC(N(C)C(=O)c2n[nH]c3ccc(-c4cccnc4)cc23)CC1 [Compound 1337, N-Methyl-N-(1-methylpiperidin-4-yl)-5-(pyridin-3-yl)-1H-indazole-3-carboxamide]"
18,1800 nM,"CCN1CCC(NC(=O)c2n[nH]c3ccc(-c4cccc(OC)c4F)cc23)CC1 [Compound 1338, N-(1-Ethylpiperidin-4-yl)-5-(2-fluoro-3-methoxyphenyl)-1H-indazole-3-carboxamide]"
19,> 10000 nM,"COc1cccc(-c2ccc3[nH]nc(C(=O)NC(C)C)c3c2)c1F [Compound 1339, 5-(2-Fluoro-3-methoxyphenyl)-N-isopropyl-1H-indazole-3-carboxamide]"
20,22 nM,"O=C(Nc1ccc(CN2CCCC2)cc1)c1n[nH]c2cc(F)c(-c3cccnc3)cc12 [Compound 1345, 6-Fluoro-5-(pyridin-3-yl)-N-(4-(pyrrolidin-1-ylmethyl)phenyl)-1H-indazole-3-carboxamide]"

# The next lines start with the molecule.
row,SMILES,EC50
1,"CN1CC2(CCC(NC(=O)c3n[nH]c4ccc(-c5cncc(F)c5)cc34)CC2)C1 [Compound 1289, 5-(5-Fluoropyridin-3-yl)-N-(2-methyl-2-azaspiro[3.5]nonan-7-yl)-1H-indazole-3-carboxamide]",29 nM
2,"CN1CCC(NC(=O)c2n[nH]c3cc(F)c(-c4cccnc4)cc23)CC1 [Compound 1290, 6-Fluoro-N-(1-methylpiperidin-4-yl)-5-(pyridin-3-yl)-1H-indazole-3-carboxamide]",21 nM
3,"CCN1CCC(NC(=O)c2n[nH]c3ccc(-c4cncc(Cl)c4)cc23)CC1 [Compound 1291, 5-(5-Chloropyridin-3-yl)-N-(1-ethylpiperidin-4-yl)-1H-indazole-3-carboxamide]",39 nM
4,"CCN1CCC(NC(=O)c2n[nH]c3ccc(-c4cncc5ccccc45)cc23)CC1 [Compound 1292, N-(1-Ethylpiperidin-4-yl)-5-(isoquinolin-4-yl)-1H-indazole-3-carboxamide]",74 nM
5,"CCN1CCC(NC(=O)c2n[nH]c3ccc(-c4cnc5ccccc5c4)cc23)CC1 [Compound 1294, N-(1-Ethylpiperidin-4-yl)-5-(quinolin-3-yl)-1H-indazole-3-carboxamide]",238 nM
6,"CCN1CCC(NC(=O)c2n[nH]c3ccc(-c4cnc5ccc(F)cc5c4)cc23)CC1 [Compound 1295, N-(1-Ethylpiperidin-4-yl)-5-(6-fluoroquinolin-3-yl)-1H-indazole-3-carboxamide]",340 nM
7,"O=C(NC1CCN(CCF)CC1)c1n[nH]c2ccc(-c3cncc(Cl)c3)cc12 [Compound 1296, 5-(5-Chloropyridin-3-yl)-N-(1-(2-fluoroethyl)piperidin-4-yl)-1H-indazole-3-carboxamide]",27 nM
8,"O=C(NC1CCN(CC(F)F)CC1)c1n[nH]c2ccc(-c3cncc(Cl)c3)cc12 [Compound 1299, 5-(5-Chloropyridin-3-yl)-N-(1-(2,2-difluoroethyl)piperidin-4-yl)-1H-indazole-3-carboxamide]",20 nM
9,"CC(F)(F)CN1CCC(NC(=O)c2n[nH]c3ccc(-c4cccnc4)cc23)CC1 [Compound 1300, N-(1-(2,2-Difluoropropyl)piperidin-4-yl)-5-(pyridin-3-yl)-1H-indazole-3-carboxamide]",6 nM
10,"CC(F)(F)CN1CCC(NC(=O)c2n[nH]c3ccc(-c4cncc(F)c4)cc23)CC1 [Compound 1301, N-(1-(2,2-Difluoropropyl)piperidin-4-yl)-5-(5-fluoropyridin-3-yl)-1H-indazole-3-carboxamide]",23 nM
11,"CC(F)(F)CN1CCC(NC(=O)c2n[nH]c3ccc(-c4cncc(Cl)c4)cc23)CC1 [Compound 1302, 5-(5-Chloropyridin-3-yl)-N-(1-(2,2-difluoropropyl)piperidin-4-yl)-1H-indazole-3-carboxamide]",31 nM
12,"CC(C)N1CCC(NC(=O)c2n[nH]c3ccc(-c4cncc(C(F)F)c4)cc23)CC1 [Compound 1303, 5-(5-(Difluoromethyl)pyridin-3-yl)-N-(1-isopropylpiperidin-4-yl)-1H-indazole-3-carboxamide]",117 nM
13,"CC(C)N1CCC(NC(=O)c2n[nH]c3cc(Cl)c(-c4cccnc4)cc23)CC1 [Compound 1304, 6-Chloro-N-(1-isopropylpiperidin-4-yl)-5-(pyridin-3-yl)-1H-indazole-3-carboxamide]",96 nM
14,"CC(C)CN1CCC(NC(=O)c2n[nH]c3ccc(-c4cncc(F)c4)cc23)CC1 [Compound 1306, 5-(5-Fluoropyridin-3-yl)-N-(1-isobutylpiperidin-4-yl)-1H-indazole-3-carboxamide]",44 nM
15,"CC(C)CN1CCC(NC(=O)c2n[nH]c3ccc(-c4cncc(Cl)c4)cc23)CC1 [Compound 1307, 5-(5-Chloropyridin-3-yl)-N-(1-isobutylpiperidin-4-yl)-1H-indazole-3-carboxamide]",47 nM
16,"CC(C)CN1CCC(NC(=O)c2n[nH]c3cc(F)c(-c4cccnc4)cc23)CC1 [Compound 1308, 6-Fluoro-N-(1-isobutylpiperidin-4-yl)-5-(pyridin-3-yl)-1H-indazole-3-carboxamide]",17 nM
17,"CC(C)(F)CN1CCC(NC(=O)c2n[nH]c3ccc(-c4cncc(F)c4)cc23)CC1 [Compound 1310, N-(1-(2-Fluoro-2-methylpropyl)piperidin-4-yl)-5-(5-fluoropyridin-3-yl)-1H-indazole-3-carboxamide]",19 nM
18,"CC(C)(F)CN1CCC(NC(=O)c2n[nH]c3ccc(-c4cncc(Cl)c4)cc23)CC1 [Compound 1311, 5-(5-Chloropyridin-3-yl)-N-(1-(2-fluoro-2-methylpropyl)piperidin-4-yl)-1H-indazole-3-carboxamide]",30 nM
